US20150030583A1, “Methods of Treating Serosal Cancer” (SLOAN KETTERING INSTITUTE FOR CANCER RESEARCH, priority 2011, published 2015)
Where a name gives a salt, the structure may show the parent alone. Read-outs that look alike come from different tables or passages of the source.

Test system: Ovcar3-GTL catenae
Assay: Ovcar3-GTL catena drug sensitivity / proliferation screen (alamarBlue, 384-well)
[1] = ratio of IC50 day 6 to day 1, Ovcar3-GTL catenae
[2] = read-out: IC50 (μM) Addition on Day 1; Ovcar3-GTL catenae; compound added one day after seeding (cells predominantly lacking a glycocalyx)
[3] = read-out: IC50 (μM) Addition on Day 6; Ovcar3-GTL catenae; compound added six days after seeding (established or substantial glycocalyx)
[4] = read-out: IC50 (μM) No coat, pathway-specific inhibitors; catena cells without glycocalyx coat
[5] = read-out: IC50 (μM) With coat, pathway-specific inhibitors; catena cells with glycocalyx coat
[6] = increased resistance of catena cells with glycocalyx coat versus no coat
[7] = read-out: IC50 (μM) With coat; pathway-specific inhibitors; catena cells with glycocalyx coat
[8] = 24 h, read-out: IC50 (μM) Addition on Day 1, Ovcar3-GTL catenae; compound added one day after seeding (cells predominantly lacking a glycocalyx)
[9] = 144 h, read-out: IC50 (μM) Addition on Day 6, Ovcar3-GTL catenae; compound added six days after seeding (established or substantial glycocalyx)
[10] = LOPAC 1280 HTS; compound at 0.2 μM

| IC50 [4] [µM] | IC50 [5] [µM] | Compound | Fold resistance [6] [fold] | other results |
| --- | --- | --- | --- | --- |
| 0.01 | < 0.2 | O=C(/C=C/c1ccc(CN(CCO)CCc2c[nH]c3ccccc23)cc1)NO [LAQ824 (NVP-LAQ824, Dacinostat), Dacinostat] | 16 | IC50 [7]: 0.2 µM |
| 0.01 |  | Cc1[nH]c2ccccc2c1CCNCc1ccc(/C=C/C(=O)NO)cc1 [LBH-589 (Panobinostat), Panobinostat] | 4 | IC50 [7]: 0.05 µM |
| > 25 | > 25 | Nc1cccc2c1CN(C1CCC(=O)NC1=O)C2=O (stereo not drawn) [Lenalidomide] |  |  |
| 3.14 | > 25 | COCCNCc1ccc(-c2cc3nccc(Oc4ccc(NC(=S)NC(=O)Cc5ccc(F)cc5)cc4F)c3s2)nc1 [MGCD-265] | >8 |  |
| 3.14 | 13.4 | NC1(c2ccc(-c3nc4ccn5c(=O)[nH]nc5c4cc3-c3ccccc3)cc2)CCC1 [MK-2206] | 4 |  |
| 13.4 | 13.4 | Cc1ccc(NC(=O)c2ccc(CN3CCN(C)CC3)cc2)cc1Nc1nc(-c2cccnc2)cs1 [Masitinib (AB1010), Masitinib] |  |  |
| > 25 | > 25 | CC1(C)CNc2cc(NC(=O)c3cccnc3NCc3ccncc3)ccc21 [Motesanib Diphosphate (AMG-706), Motesanib Diphosphate] |  |  |
| 3.14 | 13.4 | NCC(=O)Nc1ccc(-n2nc(C(F)(F)F)cc2-c2ccc3c(ccc4ccccc43)c2)cc1 [OSU-03012] | 4 |  |
| 13.4 | 13.4 | CC(=O)c1c(C)c2cnc(Nc3ccc(N4CCNCC4)cn3)nc2n(C2CCCC2)c1=O [PD-0332991] |  | IC50 [8]: 0.6 µM; IC50 [9]: 50 µM; Increase in Resistance Day6/Day 1 [1]: 83 fold |
| 0.78 | 13.4 | C[C@@H](Oc1cc(-c2cnn(C3CCNCC3)c2)cnc1N)c1c(Cl)ccc(F)c1Cl [PF-02341066, Crizotinib] | 16 | IC50 [8]: 0.8 µM; IC50 [9]: 25 µM; Increase in Resistance Day6/Day 1 [1]: 31 fold |
| > 25 |  | OCCn1cc(-c2cnc3nnn(Cc4ccc5ncccc5c4)c3n2)cn1 [PF-04217903] |  | IC50 [7]: > 25 µM |
| 3.14 | 3.14 | Cc1[nH]c(/C=C2\C(=O)Nc3ccc(S(=O)(=O)Cc4c(Cl)cccc4Cl)cc32)c(C)c1C(=O)N1CCC[C@@H]1CN1CCCC1 [PHA-665752] | 1 |  |
| > 25 | > 25 | Cc1ccc(Nc2nccc(N(C)c3ccc4c(C)n(C)nc4c3)n2)cc1S(N)(=O)=O [Pazopanib Hydrochloride] |  |  |
| 3.14 | 13.4 | CCCCCCCCCCCCCCCCCCOP(=O)([O-])OC1CC[N+](C)(C)CC1 [Perifosine] | 4 |  |
| > 25 | > 25 | Cn1cc(C2=C(c3ccc(Cl)cc3Cl)C(=O)NC2=O)c2ccccc21 [SB 216763] |  |  |
| 3.14 | > 25 | Cn1cc(-c2ccc3nnc(Sc4ccc5ncccc5c4)n3n2)cn1 [SGX-523] | >8 |  |
| 3.14 | > 25 | Cc1[nH]c(/C=C2\C(=O)Nc3ccc(S(=O)(=O)N(C)c4cccc(Cl)c4)cc32)c(C)c1C(=O)N1CCN(C)CC1 [SU11274 (PKI-SU11274)] | >8 |  |
| 13.4 | 13.4 | CNC(=O)c1cc(Oc2ccc(NC(=O)Nc3ccc(Cl)c(C(F)(F)F)c3)cc2)ccn1 [Sorafenib Tosylate (Bay 43-9006), Sorafenib Tosylate] |  |  |
| 3.14 | 13.4 | CCN(CC)CCNC(=O)c1c(C)[nH]c(/C=C2\C(=O)Nc3ccc(F)cc32)c1C [Sunitinib Malate (Sutent), Sunitinib Malate] | 4 |  |
| 13.4 | 13.4 | COc1cc2c(N3CCN(C(=O)Nc4ccc(OC(C)C)cc4)CC3)ncnc2cc1OCCCN1CCCCC1 [Tandutinib (MLN518), Tandutinib] |  |  |
| 0.05 | > 25 | Cc1cc(Nc2cc(N3CCN(C)CC3)nc(Sc3ccc(NC(=O)C4CC4)cc3)n2)[nH]n1 [VX-680 (Tozasertib), Tozasertib] |  |  |
| > 25 | > 25 | Clc1ccc(Nc2nnc(Cc3ccncc3)c3ccccc23)cc1 [Vatalanib] |  |  |
| 0.05 | 13.4 | COc1cc2c(Oc3ccc(NC(=O)C4(C(=O)Nc5ccc(F)cc5)CC4)cc3F)ccnc2cc1OCCCN1CCOCC1 [XL880 (GSK1363089EXEL-2880)] |  |  |
| > 25 | > 25 | C[C@@H](N)[C@H]1CC[C@H](C(=O)Nc2ccncc2)CC1 [Y27632] |  | IC50 [8]: > 100 µM; IC50 [9]: > 100 µM |
| 3.14 | > 25 | FC(F)c1nc2ccccc2n1-c1nc(N2CCOCC2)nc(N2CCOCC2)n1 [ZSTK474] | >8 |  |

The next lines start with the compound.

| Compound | IC50 [4] [µM] | IC50 [5] [µM] | Fold resistance [6] [fold] | other results |
| --- | --- | --- | --- | --- |
| C=CCNC1=C2C[C@@H](C)C[C@H](OC)[C@H](O)[C@@H](C)/C=C(\C)[C@H](OC(N)=O)[C@@H](OC)/C=C\C=C(/C)C(=O)NC(=CC1=O)C2=O [17AAG] |  |  |  | Increase in Resistance Day6/Day 1 [1]: 33 fold; IC50 [2]: 0.012 µM; IC50 [3]: 0.4 µM |
| C[C@]1(c2nc3c(C(N)=O)cccc3[nH]2)CCCN1 [ABT-888 (Veliparib), Veliparib] | 13.4 | > 25 |  |  |
| Cc1ccc(C(=O)Nc2ccc(CN3CCN(C)CC3)c(C(F)(F)F)c2)cc1C#Cc1cnc2cccnn12 [AP24534 (Ponatinib), Ponatinib] |  |  | 16 | IC50 (read-out: IC50 (μM) No coat): 0.78 µM; IC50 (read-out: IC50 (μM) With coat): 13.4 µM |
| COc1cc2nccc(Oc3ccc(NC(=O)Nc4cc(C)on4)c(Cl)c3)c2cc1OC [AV-951 (Tivozanib), Tivozanib] | 13.4 | > 25 |  |  |
| CNC(=O)c1cc(Oc2ccc(NC(=O)Nc3ccc(Cl)c(C(F)(F)F)c3)c(F)c2)ccn1 [BAY 73-4506 (Regorafenib), Regorafenib] | 13.4 | 13.4 |  |  |
| Cn1c(=O)n(-c2ccc(C(C)(C)C#N)cc2)c2c3cc(-c4cnc5ccccc5c4)ccc3ncc21 [BEZ235 (NVP-BEZ235)] | 0.05 | > 25 |  |  |
| CC[C@@H]1C(=O)N(C)c2cnc(Nc3ccc(C(=O)NC4CCN(C)CC4)cc3OC)nc2N1C1CCCC1 [BI 2536] |  |  |  | IC50 (read-out: IC50 (μM) No coat): < 0.001 µM; IC50 (read-out: IC50 (μM) With coat): 13.4 µM |
| COC(=O)c1ccc2c(c1)NC(=O)/C2=C(\Nc1ccc(N(C)C(=O)CN2CCN(C)CC2)cc1)c1ccccc1 [BIBF1120 (Vargatef)] | 13.4 | 13.4 |  |  |
| CN(C)C/C=C/C(=O)Nc1cc2c(Nc3ccc(F)c(Cl)c3)ncnc2cc1O[C@H]1CCOC1 [BIBW2992 (Tovok)] | 3.14 | 13.4 | 4 |  |
| CN1CCN(c2ccc3nc(-c4c(N)c5c(F)cccc5[nH]c4=O)[nH]c3c2)CC1 [CHIR-258 (Dovitinib), Dovitinib] | 3.14 | 13.4 | 4 |  |
| O=C(NOCC1CC1)c1ccc(F)c(F)c1Nc1ccc(I)cc1Cl [CI-1040 (PD184352)] | > 25 | > 25 |  |  |
| C/C(=C\c1csc(C)n1)[C@@H]1C[C@@H]2O[C@]2(C)CCC[C@H](C)[C@H](O)[C@@H](C)C(=O)C(C)(C)[C@@H](O)CC(=O)O1 [Epo-B] |  |  |  | Increase in Resistance Day6/Day 1 [1]: 4,000 fold; IC50 [2]: 0.025 µM; IC50 [3]: > 100 µM |
| CS(=O)(=O)c1ccc(C(=O)Nc2ccc(Cl)c(-c3ccccn3)c2)c(Cl)c1 [GDC-0449 (Vismodegib), Vismodegib] | > 25 | > 25 |  |  |
| OCCn1cc(-c2ccc3c(c2)CC/C3=N\O)c(-c2ccncc2)n1 [GDC-0879] | > 25 | > 25 |  |  |
| CS(=O)(=O)N1CCN(Cc2cc3nc(-c4cccc5[nH]ncc45)nc(N4CCOCC4)c3s2)CC1 [GDC-0941] | 3.14 | > 25 | >8 |  |
| CCc1cc(Nc2nccc(-c3c(-c4ccc(OC)c(C(=O)Nc5c(F)cccc5F)c4)nc4ccccn34)n2)c(OC)cc1N1CCC(N2CCN(S(C)(=O)=O)CC2)CC1 [GSK1904529A] | > 25 |  |  | IC50 [7]: > 25 µM |
| Cn1cc(-c2ccc3nnc(C(F)(F)c4ccc5ncccc5c4)n3n2)cn1 [JNJ-38877605] | 3.14 |  | >8 | IC50 [7]: > 25 µM |
| O=c1cc(-c2cccc3c2Sc2ccccc2S3)oc(N2CCOCC2)c1 [KU-55933] | 13.4 | 13.4 |  |  |
| O=c1cc(N2CCOCC2)oc2c(-c3ccccc3)cccc12 [LY294002] |  |  |  | IC50 [8]: 25 µM; IC50 [9]: > 100 µM; Increase in Resistance Day6/Day 1 [1]: 4 fold |
| CCNC(=O)c1noc(-c2cc(C(C)C)c(O)cc2O)c1-c1ccc(CN2CCOCC2)cc1 [NVP-AUY922] |  |  | 24 |  |
| O=C(NOC[C@H](O)CO)c1ccc(F)c(F)c1Nc1ccc(I)cc1F [PD0325901] |  |  |  | IC50 (read-out: IC50 (μM) No coat): 0.2 µM; IC50 (read-out: IC50 (μM) With coat): > 25 µM |
| Oc1cccc(-c2nc(N3CCOCC3)c3oc4ncccc4c3n2)c1 [PI-103] |  |  | 16 | IC50 (read-out: IC50 (μM) No coat): 0.78 µM; IC50 (read-out: IC50 (μM) With coat): 13.4 µM |
| N#CC(=C(/N)Sc1ccccc1N)/C(C#N)=C(\N)Sc1ccccc1N [U0126] |  |  |  | IC50 (read-out: IC50 (μM) No coat): 13.4 µM; IC50 (read-out: IC50 (μM) With coat): > 25 µM |
| CC(C)C[C@H](NC(=O)[C@H](Cc1ccccc1)NC(=O)c1cnccn1)B(O)O [bortezomib] |  |  |  | IC50 [8]: 0.013 µM; IC50 [9]: 0.013 µM |
| C[C@H]1CCC/C=C/[C@@H]2C[C@H](O)C[C@H]2[C@H](O)/C=C/C(=O)O1 [brefeldin A] |  |  |  | toxicity to catena cells with a glycocalyx coat [10]: exert toxicity |
| COc1cc2c(c(OC)c1OC)-c1ccc(OC)c(=O)cc1[C@@H](NC(C)=O)CC2 [colchicine] |  |  |  | toxicity to catena cells with a glycocalyx coat [10]: exert toxicity |
